Where a SMILES comes first, the peptide text is derived from it. Bridges are numbered along the chain shown (N, C = ends). [ ]: non-standard residue; d: D form. The star is where a group is joined. Ileψ(thiazoline)Cys = CC[C@H](C)[C@H](N)C1=N[C@H](C(=O)*)CS1; dOrn = NCCC[C@@H](N)C(=O)O
Experiments:
[1] = target: Nitric oxide synthase 1 (Rattus norvegicus, UniProt P29476); assay type: tissue-based, Cerebellum; further: in other assays of this panel Not Active means under 50% inhibition at 10 µM
[2] = target: T1, Muscarinic acetylcholine receptor M5 (Homo sapiens, UniProt P08912); assay type: cell membranes, CHO-K1, Membrane; conditions: cho-k1; further: in other assays of this panel Not Active means under 50% inhibition at 10 µM
T1 sequence (P08912 whole entry): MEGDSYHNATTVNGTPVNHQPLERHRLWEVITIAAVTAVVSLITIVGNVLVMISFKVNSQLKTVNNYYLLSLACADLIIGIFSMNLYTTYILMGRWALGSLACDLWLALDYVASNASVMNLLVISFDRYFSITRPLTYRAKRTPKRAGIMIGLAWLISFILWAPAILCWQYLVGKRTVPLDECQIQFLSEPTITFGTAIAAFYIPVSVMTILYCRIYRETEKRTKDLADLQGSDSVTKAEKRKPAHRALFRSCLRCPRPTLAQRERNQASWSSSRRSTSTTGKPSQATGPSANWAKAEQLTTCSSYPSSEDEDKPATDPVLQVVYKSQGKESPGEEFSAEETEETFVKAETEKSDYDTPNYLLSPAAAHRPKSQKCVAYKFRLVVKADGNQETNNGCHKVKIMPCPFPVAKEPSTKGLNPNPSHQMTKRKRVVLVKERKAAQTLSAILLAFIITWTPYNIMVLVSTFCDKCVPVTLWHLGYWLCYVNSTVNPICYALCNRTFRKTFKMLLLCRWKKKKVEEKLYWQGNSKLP

[3] = DRUGMATRIX: Platelet-Derived Growth Factor (PDGF) radioligand binding (ligand: [125I] PDGF); assay type: cell-based; conditions: nih3t3; Not Active = under 50% inhibition at 10 µM
[4] = target: T2, C-X-C chemokine receptor type 2 (Homo sapiens, UniProt P25025); assay type: cell membranes, Membrane; conditions: cho-k1; further: in other assays of this panel Not Active means under 50% inhibition at 10 µM
T2 sequence (P25025 whole entry): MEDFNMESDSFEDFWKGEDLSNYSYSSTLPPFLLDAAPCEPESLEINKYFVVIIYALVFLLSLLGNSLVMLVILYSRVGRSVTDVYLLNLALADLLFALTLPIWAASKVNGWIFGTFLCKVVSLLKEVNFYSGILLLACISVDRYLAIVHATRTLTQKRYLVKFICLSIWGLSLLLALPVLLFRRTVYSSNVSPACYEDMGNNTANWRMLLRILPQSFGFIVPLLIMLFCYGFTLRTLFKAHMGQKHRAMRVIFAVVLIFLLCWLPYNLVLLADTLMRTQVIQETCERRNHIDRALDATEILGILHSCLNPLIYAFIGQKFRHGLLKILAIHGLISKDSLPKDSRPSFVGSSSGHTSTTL

[5] = target: Platelet-activating factor receptor (Homo sapiens, UniProt P25105); assay: biochemical; assay type: tissue-based; conditions: platelet; further: in other assays of this panel Not Active means under 50% inhibition at 10 µM
Sequence of Platelet-activating factor receptor (P25105 whole entry): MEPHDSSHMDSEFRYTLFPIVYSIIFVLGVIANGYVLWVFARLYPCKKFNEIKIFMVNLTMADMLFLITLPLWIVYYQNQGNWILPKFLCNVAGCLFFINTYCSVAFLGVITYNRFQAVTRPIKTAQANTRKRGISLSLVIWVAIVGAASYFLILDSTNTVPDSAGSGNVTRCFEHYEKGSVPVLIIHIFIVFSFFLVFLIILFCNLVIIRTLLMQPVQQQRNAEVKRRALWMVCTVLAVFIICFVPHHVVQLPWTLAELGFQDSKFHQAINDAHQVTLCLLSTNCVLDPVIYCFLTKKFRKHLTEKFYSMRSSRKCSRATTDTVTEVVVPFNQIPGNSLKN

[6] = DRUGMATRIX: Tumor Necrosis Factor (TNF), Non-Selective radioligand binding (ligand: [125I] TNF-alpha); assay type: cell membranes, Membrane; conditions: u-937; Not Active = under 50% inhibition at 10 µM
[7] = target: Cytochrome P450 2D6 (Homo sapiens, UniProt P10635); conditions: bti-tn-5b1-4; further: in other assays of this panel Not Active means under 50% inhibition at 10 µM
Sequence of Cytochrome P450 2D6 (P10635 whole entry): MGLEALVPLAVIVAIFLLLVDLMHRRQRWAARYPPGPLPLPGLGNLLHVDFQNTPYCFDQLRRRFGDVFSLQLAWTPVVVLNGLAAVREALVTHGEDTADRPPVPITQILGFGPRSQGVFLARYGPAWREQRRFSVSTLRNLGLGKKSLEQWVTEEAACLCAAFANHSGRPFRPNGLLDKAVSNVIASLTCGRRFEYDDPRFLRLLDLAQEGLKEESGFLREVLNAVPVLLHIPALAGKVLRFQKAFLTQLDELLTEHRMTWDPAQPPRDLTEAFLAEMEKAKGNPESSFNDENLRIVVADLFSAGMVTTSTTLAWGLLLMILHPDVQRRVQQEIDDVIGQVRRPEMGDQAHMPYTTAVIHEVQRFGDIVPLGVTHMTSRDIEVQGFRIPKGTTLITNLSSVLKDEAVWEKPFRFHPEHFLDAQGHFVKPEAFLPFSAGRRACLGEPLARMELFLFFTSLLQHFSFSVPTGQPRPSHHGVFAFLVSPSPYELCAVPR

[8] = target: T3, Leukotriene C4 synthase (Cavia porcellus, UniProt A6XA80); assay: biochemical; assay type: tissue-based, Lung
T3 sequence (A6XA80 whole entry): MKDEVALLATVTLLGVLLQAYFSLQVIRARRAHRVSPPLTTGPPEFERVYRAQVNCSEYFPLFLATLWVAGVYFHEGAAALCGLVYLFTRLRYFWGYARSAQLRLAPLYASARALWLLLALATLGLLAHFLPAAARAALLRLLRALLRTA

[9] = target: Sigma non-opioid intracellular receptor 1 (Homo sapiens, UniProt Q99720); assay: DRUGMATRIX: Sigma1 radioligand binding (ligand: [3H] Haloperidol); assay type: cell membranes, Jurkat, Membrane; conditions: jurkat; Not Active = under 50% inhibition at 10 µM
Sequence of Sigma non-opioid intracellular receptor 1 (Q99720 whole entry): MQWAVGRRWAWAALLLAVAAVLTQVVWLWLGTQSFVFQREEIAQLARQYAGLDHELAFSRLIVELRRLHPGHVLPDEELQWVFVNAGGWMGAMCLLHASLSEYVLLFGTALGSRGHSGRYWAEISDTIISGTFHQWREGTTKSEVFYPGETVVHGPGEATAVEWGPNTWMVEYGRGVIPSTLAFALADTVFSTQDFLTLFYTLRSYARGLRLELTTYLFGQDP

[10] = target: Estrogen receptor beta (Homo sapiens, UniProt Q92731); conditions: sf9; further: in other assays of this panel Not Active means under 50% inhibition at 10 µM
Sequence of Estrogen receptor beta (Q92731 whole entry): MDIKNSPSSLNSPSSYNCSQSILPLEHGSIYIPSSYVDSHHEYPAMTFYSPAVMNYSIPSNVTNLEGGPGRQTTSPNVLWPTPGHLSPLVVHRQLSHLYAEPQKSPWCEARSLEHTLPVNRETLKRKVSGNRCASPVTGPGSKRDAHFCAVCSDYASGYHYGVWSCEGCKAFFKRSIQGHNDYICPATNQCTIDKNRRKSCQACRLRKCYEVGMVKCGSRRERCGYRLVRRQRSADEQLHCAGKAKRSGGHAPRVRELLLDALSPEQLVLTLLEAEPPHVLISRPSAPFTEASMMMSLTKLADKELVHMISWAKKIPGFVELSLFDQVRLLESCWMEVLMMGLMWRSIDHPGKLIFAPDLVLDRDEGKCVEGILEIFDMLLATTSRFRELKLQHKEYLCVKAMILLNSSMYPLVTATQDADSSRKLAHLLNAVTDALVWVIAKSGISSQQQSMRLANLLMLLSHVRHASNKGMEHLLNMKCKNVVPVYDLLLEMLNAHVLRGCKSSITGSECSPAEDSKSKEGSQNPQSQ

[11] = DRUGMATRIX: Glutamate, NMDA, Phencyclidine radioligand binding (ligand: [3H] TCP); assay type: cell membranes, Rattus norvegicus, Wistar, Cerebral cortex, Membrane; conditions: Not Active = under 50% inhibition at 10 µM
[12] = target: 5-hydroxytryptamine receptor 4 (Cavia porcellus, UniProt O70528); assay type: cell membranes, Dunkin-Hartley, Striatum, Membrane; further: in other assays of this panel Not Active means under 50% inhibition at 10 µM
Sequence of 5-hydroxytryptamine receptor 4 (O70528 whole entry): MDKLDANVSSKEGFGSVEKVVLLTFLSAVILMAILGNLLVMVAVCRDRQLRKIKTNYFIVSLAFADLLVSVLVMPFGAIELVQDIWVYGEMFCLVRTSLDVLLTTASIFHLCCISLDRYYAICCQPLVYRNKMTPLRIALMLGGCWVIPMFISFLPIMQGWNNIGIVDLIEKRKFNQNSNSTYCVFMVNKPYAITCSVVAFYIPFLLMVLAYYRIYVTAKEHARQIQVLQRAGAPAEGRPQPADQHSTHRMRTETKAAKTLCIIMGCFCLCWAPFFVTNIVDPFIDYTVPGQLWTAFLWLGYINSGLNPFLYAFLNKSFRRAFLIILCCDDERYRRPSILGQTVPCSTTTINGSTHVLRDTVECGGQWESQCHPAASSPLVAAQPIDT

[13] = target: Protein kinase C alpha type (Homo sapiens, UniProt P17252); assay type: cell-based; conditions: sf9
[14] = target: Epidermal growth factor receptor (Homo sapiens, UniProt P00533); assay: DRUGMATRIX: Protein Tyrosine Kinase, EGF Receptor enzyme inhibition (substrate: Poly(Glu:Tyr)); assay type: cell-based, Insect cells; conditions: insect cells; Not Active = under 50% inhibition at 10 µM
Sequence of Epidermal growth factor receptor (P00533 whole entry): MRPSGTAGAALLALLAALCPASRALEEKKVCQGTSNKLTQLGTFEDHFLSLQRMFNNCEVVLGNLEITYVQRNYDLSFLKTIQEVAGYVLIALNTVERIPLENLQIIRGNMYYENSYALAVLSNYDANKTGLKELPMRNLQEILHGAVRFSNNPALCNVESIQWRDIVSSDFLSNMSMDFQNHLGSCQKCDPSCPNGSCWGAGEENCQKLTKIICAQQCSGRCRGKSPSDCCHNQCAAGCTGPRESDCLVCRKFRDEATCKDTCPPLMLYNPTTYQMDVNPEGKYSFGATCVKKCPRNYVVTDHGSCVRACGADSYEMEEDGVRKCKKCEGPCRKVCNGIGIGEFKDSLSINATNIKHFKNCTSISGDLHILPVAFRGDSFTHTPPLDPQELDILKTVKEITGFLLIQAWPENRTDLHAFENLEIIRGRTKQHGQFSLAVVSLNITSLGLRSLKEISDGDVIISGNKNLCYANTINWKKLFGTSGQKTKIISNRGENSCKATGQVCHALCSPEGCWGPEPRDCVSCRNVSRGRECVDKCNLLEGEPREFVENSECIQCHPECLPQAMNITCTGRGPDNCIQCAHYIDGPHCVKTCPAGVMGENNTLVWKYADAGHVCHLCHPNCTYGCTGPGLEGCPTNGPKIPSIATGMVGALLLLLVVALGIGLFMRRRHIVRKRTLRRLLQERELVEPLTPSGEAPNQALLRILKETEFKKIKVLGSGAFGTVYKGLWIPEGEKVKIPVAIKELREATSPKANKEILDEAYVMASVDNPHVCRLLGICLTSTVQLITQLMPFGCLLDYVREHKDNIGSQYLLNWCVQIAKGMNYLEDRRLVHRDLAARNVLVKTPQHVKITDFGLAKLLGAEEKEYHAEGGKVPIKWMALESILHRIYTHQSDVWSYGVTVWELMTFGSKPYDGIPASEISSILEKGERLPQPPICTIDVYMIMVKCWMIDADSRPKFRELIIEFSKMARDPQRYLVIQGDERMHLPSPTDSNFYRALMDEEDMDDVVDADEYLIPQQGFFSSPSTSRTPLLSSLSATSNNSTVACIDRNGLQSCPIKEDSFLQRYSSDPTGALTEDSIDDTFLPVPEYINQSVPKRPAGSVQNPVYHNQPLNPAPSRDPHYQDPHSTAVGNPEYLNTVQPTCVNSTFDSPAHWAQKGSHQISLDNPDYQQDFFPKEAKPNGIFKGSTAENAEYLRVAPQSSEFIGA

[15] = target: Cytochrome P450 2C9 (Homo sapiens, UniProt P11712); conditions: bti-tn-5b1-4; further: in other assays of this panel Not Active means under 50% inhibition at 10 µM
Sequence of Cytochrome P450 2C9 (P11712 whole entry): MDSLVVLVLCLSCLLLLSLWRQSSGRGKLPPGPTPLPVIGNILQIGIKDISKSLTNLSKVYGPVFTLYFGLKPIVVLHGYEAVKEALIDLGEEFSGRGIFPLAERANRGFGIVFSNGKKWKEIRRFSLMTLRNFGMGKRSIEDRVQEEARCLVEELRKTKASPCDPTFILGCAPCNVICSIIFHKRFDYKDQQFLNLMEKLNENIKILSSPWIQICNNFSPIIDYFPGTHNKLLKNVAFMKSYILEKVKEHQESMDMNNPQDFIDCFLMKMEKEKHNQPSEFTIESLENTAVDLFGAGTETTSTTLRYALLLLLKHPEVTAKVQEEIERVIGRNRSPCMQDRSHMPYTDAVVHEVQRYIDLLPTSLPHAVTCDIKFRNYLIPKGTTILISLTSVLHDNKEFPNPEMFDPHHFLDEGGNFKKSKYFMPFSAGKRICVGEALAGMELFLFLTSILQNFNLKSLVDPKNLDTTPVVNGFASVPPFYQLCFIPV

CC[C@H](C)[C@H](N)C1=N[C@H](C(=O)N[C@@H](CC(C)C)C(=O)N[C@H](CCC(=O)O)C(=O)N[C@H](C(=O)N[C@H]2CCCCNC(=O)[C@H](CC(N)=O)NC(=O)[C@@H](CC(=O)O)NC(=O)[C@H](Cc3cnc[nH]3)NC(=O)[C@@H](Cc3ccccc3)NC(=O)[C@H]([C@@H](C)CC)NC(=O)[C@@H](CCCN)NC2=O)[C@@H](C)CC)CS1 [BACITRACIN] ({Ileψ(thiazoline)Cys}-L[dE]IK[dOrn]I[dF]H[dD]N; lactam 4-C)
Not Active: IC50 [1] | IC50 [2] | IC50 [3] | Ki [3] | IC50 [4] | IC50 [5] | IC50 [6] | Ki [6] | IC50 [7] | Ki [7] | IC50 [8] | IC50 [9] | IC50 [10] | IC50 [11] | Ki [11] | IC50 [12] | IC50 [13]

CC1=Nc2ccc(Cl)cc2S(=O)(=O)N1 [DIAZOXIDE]
Not Active: IC50 [1] | IC50 [2] | IC50 [14] | IC50 [3] | Ki [3] | IC50 [4] | IC50 [15] | Ki [15] | IC50 [5] | IC50 [6] | Ki [6] | IC50 [7] | Ki [7] | IC50 [8] | IC50 [9] | IC50 [11] | Ki [11] | IC50 [12] | IC50 [13]

NCC1(CC(=O)O)CCCCC1 [GABAPENTIN]
Not Active: IC50 [1] | IC50 [2] | IC50 [14] | IC50 [3] | Ki [3] | IC50 [4] | IC50 [15] | Ki [15] | IC50 [5] | IC50 [6] | Ki [6] | IC50 [7] | Ki [7] | IC50 [8] | IC50 [9] | IC50 [11] | Ki [11] | IC50 [12] | IC50 [13]

COc1c(N2CCNC(C)C2)c(F)cc2c(=O)c(C(=O)O)cn(C3CC3)c12 (stereo not drawn) [GATIFLOXACIN]
Not Active: IC50 [1] | IC50 [2] | IC50 [3] | Ki [3] | IC50 [4] | IC50 [15] | Ki [15] | IC50 [5] | IC50 [6] | Ki [6] | IC50 [7] | Ki [7] | IC50 [8] | IC50 [9] | IC50 [10] | IC50 [11] | Ki [11] | IC50 [12] | IC50 [13]

CC1COc2c(N3CCN(C)CC3)c(F)cc3c(=O)c(C(=O)O)cn1c23 (stereo not drawn) [OFLOXACIN]
Not Active: IC50 [1] | IC50 [2] | IC50 [14] | IC50 [3] | Ki [3] | IC50 [4] | IC50 [15] | Ki [15] | IC50 [5] | IC50 [6] | Ki [6] | IC50 [7] | Ki [7] | IC50 [8] | IC50 [9] | IC50 [11] | Ki [11] | IC50 [12] | IC50 [13]

O=C1NC(=O)C(c2ccccc2)(c2ccccc2)N1 [PHENYTOIN]
Not Active: IC50 [1] | IC50 [2] | IC50 [14] | IC50 [3] | Ki [3] | IC50 [4] | IC50 [15] | Ki [15] | IC50 [5] | IC50 [6] | Ki [6] | IC50 [7] | Ki [7] | IC50 [8] | IC50 [9] | IC50 [11] | Ki [11] | IC50 [12] | IC50 [13]

CN1C(C(=O)Nc2ccccn2)=C(O)c2ccccc2S1(=O)=O [PIROXICAM]
Not Active: IC50 [1] | IC50 [2] | IC50 [14] | IC50 [3] | Ki [3] | IC50 [4] | IC50 [15] | Ki [15] | IC50 [5] | IC50 [6] | Ki [6] | IC50 [7] | Ki [7] | IC50 [8] | IC50 [9] | IC50 [11] | Ki [11] | IC50 [12] | IC50 [13]

CCCc1cc(=O)[nH]c(=S)[nH]1 [PROPYLTHIOURACIL]
Not Active: IC50 [1] | IC50 [2] | IC50 [14] | IC50 [3] | Ki [3] | IC50 [4] | IC50 [15] | Ki [15] | IC50 [5] | IC50 [6] | Ki [6] | IC50 [7] | Ki [7] | IC50 [8] | IC50 [9] | IC50 [11] | Ki [11] | IC50 [12] | IC50 [13]

GOLD SODIUM THIOMALATE
Not Active: IC50 [1] | Ki [1] | IC50 [2] | Ki [2] | IC50 [3] | Ki [3] | IC50 [4] | Ki [4] | IC50 [15] | Ki [15] | IC50 [5] | Ki [5] | IC50 [6] | Ki [6] | IC50 [7] | Ki [7] | IC50 [8] | Ki [8] | IC50 [9] | Ki [9] | IC50 [10] | Ki [10] | IC50 [11] | Ki [11] | IC50 [12] | Ki [12] | IC50 [13] | Ki [13]
